We go through four compounds from ChEMBL document CHEMBL3102819, “Morpholylureas are a new class of potent and selective inhibitors of the type 5 17-β-hydroxysteroid dehydrogenase (AKR1C3)” (Bioorg Med Chem, 2014).

Assay [1] concerns the target T1, Aldo-keto reductase family 1 member C4 (Homo sapiens, UniProt P17516).
T1 sequence (P17516 whole entry): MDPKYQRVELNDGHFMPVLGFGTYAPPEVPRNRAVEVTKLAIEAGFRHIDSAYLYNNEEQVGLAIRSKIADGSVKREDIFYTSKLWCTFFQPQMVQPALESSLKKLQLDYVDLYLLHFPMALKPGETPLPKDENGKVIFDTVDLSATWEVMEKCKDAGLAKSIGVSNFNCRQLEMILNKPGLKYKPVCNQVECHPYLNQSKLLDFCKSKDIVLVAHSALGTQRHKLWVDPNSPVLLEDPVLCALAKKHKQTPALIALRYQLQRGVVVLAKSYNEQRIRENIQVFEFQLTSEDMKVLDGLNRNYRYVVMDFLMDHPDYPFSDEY
In words: Inhibition of recombinant AKR1C4 (unknown origin) after 1 hr by competitive fluorescence assay.

Assay [2] concerns the target T2, Aldo-keto reductase family 1 member C3 (Homo sapiens, UniProt P42330).
T2 sequence (P42330 whole entry): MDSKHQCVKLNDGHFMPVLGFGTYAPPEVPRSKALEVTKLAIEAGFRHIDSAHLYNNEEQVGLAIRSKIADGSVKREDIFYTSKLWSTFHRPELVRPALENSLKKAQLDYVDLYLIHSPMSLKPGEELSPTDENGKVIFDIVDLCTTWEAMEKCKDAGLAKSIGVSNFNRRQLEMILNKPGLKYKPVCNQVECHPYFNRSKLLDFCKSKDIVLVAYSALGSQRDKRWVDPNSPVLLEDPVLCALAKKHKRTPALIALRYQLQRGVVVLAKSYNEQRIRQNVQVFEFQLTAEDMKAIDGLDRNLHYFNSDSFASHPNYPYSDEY
The assay is described as follows: Inhibition of AKR1C3 (unknown origin) expressed in human HCT116 cells assessed as formation of PR-104H from PR-104A preincubated for 2 hrs. The format is cell-based, HCT-116.

The target in assay [3] is T3, Aldo-keto reductase family 1 member C2 (Homo sapiens, UniProt P52895).
T3 sequence (P52895 whole entry): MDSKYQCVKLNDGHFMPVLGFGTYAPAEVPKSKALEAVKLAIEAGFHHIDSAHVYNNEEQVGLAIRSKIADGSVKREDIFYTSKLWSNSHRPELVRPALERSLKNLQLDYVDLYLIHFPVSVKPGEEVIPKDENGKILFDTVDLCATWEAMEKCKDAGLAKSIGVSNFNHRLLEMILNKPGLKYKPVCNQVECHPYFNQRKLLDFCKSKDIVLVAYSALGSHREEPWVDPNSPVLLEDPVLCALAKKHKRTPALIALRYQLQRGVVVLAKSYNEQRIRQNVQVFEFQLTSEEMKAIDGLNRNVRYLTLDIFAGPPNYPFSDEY
In words: Inhibition of recombinant AKR1C2 (unknown origin) after 1 hr by competitive fluorescence assay.

The target in assay [4] is T4, Aldo-keto reductase family 1 member C1 (Homo sapiens, UniProt Q04828).
T4 sequence (Q04828 whole entry): T3 sequence (P52895 whole entry) with V38T, H47R, V54L, S87C, M151V, H170R, L172Q
In words: Inhibition of recombinant AKR1C1 (unknown origin) after 1 hr by competitive fluorescence assay.

Assay [5] addresses T2, Aldo-keto reductase family 1 member C3. The assay is described as follows: Inhibition of recombinant AKR1C3 (unknown origin) after 1 hr by competitive fluorescence assay.

Residue numbers refer to the chain shown, from its start.

One may read the IC50 as the concentration that inhibits the measured activity by half. In the case of `O=C(N1CCOCC1)N1CCN(c2ccc(C(F)(F)F)cc2)CC1`, the IC50 in assay [1] was over 30000 nM; in assay [2], 22 nM; in assay [3], over 30000 nM; in assay [4], over 30000 nM; in assay [5], 68 nM.
As for `O=C(N1CCOCC1)N1CCN(c2ccc(Cl)cc2)CC1`, the IC50 is over 30000 nM in assay [1]; 18 nM in assay [2]; over 30000 nM in assay [3]; over 30000 nM in assay [4]; 110 nM in assay [5].
In the case of `O=C(N1CCOCC1)N1CCN(c2ccc(Br)cc2)CC1`, the IC50 in assay [1] is over 30000 nM; in assay [2] it was 12 nM; in assay [3] it was over 30000 nM; in assay [4] it was over 30000 nM; in assay [5], 140 nM.
For the compound `O=C(N1CCOCC1)N1CCN(c2ccc(I)cc2)CC1`, the concentration for half-maximal inhibition (IC50) is over 30000 nM in assay [1]; 10 nM in assay [2]; over 30000 nM in assay [3]; over 30000 nM in assay [4]; 67 nM in assay [5].
